From patent US5206234A, “Benzolactam analogs as antagonists of CCK” (priority 1991, dated 1993)

Legend:
CCK-A receptors = settings: cited from earlier work
[1] = test system: exploratory behavior of the rat; test: Exploratory behavior in automated activity cages, novel environment; assay type: in vivo, rat (Male Sprague Dawley)
Description: (§1) B. The effects of CCK-8 and compound A on the exploratory behavior of the rat were examined in automated activity cages and by direct observation. It is known that exogenous CCK-8 decreases exploratory behavior in rats in a novel environment by accelerating the process of habituation. [See Crawley, Pharm. Biochem & Behav. 20, 23-27 (1984).]
Expt 1. Male Sprague Dawley rats were injected ([…].) with CCK-8 and immediately placed in automated activity cages. Activity was measured for 30 minutes past injection.
Expt 2. Male SD rats were injected (s.c.) with the CCK antagonist compound A (0.0001-10 mg/kg) and immediately placed in the automated activity cages.

anxiety (mice) = test: Black/white exploration test (anxiolytic activity); assay type: in vivo, mouse (male DBA2)
Description: The black/white exploration test [Crawley et al. Pharmacology, Biochemistry and Behav. 13, 167 (1980)] is a simple animal model of anxiety. Rodents placed in a two compartment box which consists of a brightly lit, white painted side and a dimly lit, black painted side, display a marked preference for the black side of the apparatus. This behavior is caused by the aversive properties of the brightly lit, white painted section. Classical anxiolytic drugs [such as diazepam, see Crawley, supra] and novel anxiolytic drugs [such as 5HT3 antagonists, see Jones et al. Br. J. Pharm.
A. Naive male DBA2 mice (25-30) were housed on a reversed light/dark cycle and tested during the dark phase of the cycle under dim red light. The apparatus consisted of an open topped box (40 cm long×27 cm wide×27 cm high) divided into a small area (2/5) and a large area (3/5) by a partition that extended 20 cm above the walls. There was a 7.5×7.5 cm opening in the partition at floor level. The small compartment was painted black and the large compartment white. The floor of each compartment was marked into 9 cm squares. The white compartment was illuminated by a 100 W tungsten bulb 17 cm above the box and the black compartment by a similarly placed 60 W red bulb.
Animals that had been injected with drug or vehicle were placed individually into the centre of the white area and their behavior observed during a 5 minute period by remote video recording. Four behavioral parameters were recorded every minute: the number of exploratory rears in the white and black sections, the number of line crossings in the black and white sections, the number of transitions between the two sections and the time spent in the black and white sections. Animals were tested in treatment groups of 8-10 and vehicle controls were run on each test day. Data were analysed by ANOVA and Dunnetts test.

[2] = test system: exploratory behavior of the rat; test: Exploration in a novel environment by direct observation (perspex cage); assay type: in vivo; settings: 0.1 mg/kg
Description: as §1
Expt 3. In order to assess further the effect of Compound A on exploration in a novel environment, the motoric hehaviors of rats placed in a perspex cage was recorded by direct observation for a 15 minute period 15 minutes after treatment with Compound A.
Experimenters (unaware of the treatments the animals had received) recorded the frequency and duration of rearing, sniffing, grooming and cage crossing using a keypad interfaced to a BBC microcomputer.

[3] = target: T1, Gastrin receptor (Gastric Glands) (Cavia porcellus, UniProt H0VZC5); test: Gastrin Receptor Binding in Guinea Pig Gastric Glands; set-up: species or system guinea pig (male Hartley); settings: head prints ^25 I-Gastrin, read-out: Receptor binding IC50, 125I-Gastrin Gastric Glands
T1 construct: from tissue; host or cells: gastric mucosal glands of male Hartley guinea pigs
T1 sequence (H0VZC5 1-426): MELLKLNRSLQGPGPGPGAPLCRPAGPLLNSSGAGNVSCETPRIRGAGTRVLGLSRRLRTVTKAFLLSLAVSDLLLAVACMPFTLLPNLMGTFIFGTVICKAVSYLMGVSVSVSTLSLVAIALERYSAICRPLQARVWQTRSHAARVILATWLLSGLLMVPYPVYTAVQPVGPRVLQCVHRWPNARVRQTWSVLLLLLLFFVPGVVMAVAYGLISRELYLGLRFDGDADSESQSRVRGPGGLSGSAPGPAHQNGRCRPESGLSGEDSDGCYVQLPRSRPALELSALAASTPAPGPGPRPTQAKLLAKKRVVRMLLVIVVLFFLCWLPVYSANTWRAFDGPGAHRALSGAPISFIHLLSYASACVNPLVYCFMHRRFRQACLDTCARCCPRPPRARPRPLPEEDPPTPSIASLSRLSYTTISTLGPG
Description: Guinea pig gastric mucosal glands were prepared by the procedure of Berglingh and Obrink Acta Physiol. Scand. 96: 150 (1976) with a slight modification according to Praissman et al. C. J. Receptor Res. 3: (1983). Gastric mucosa from guinea pigs (300-500 g body weight, male Hartley) were washed thoroughly and minced with fine scissors in standard buffer consisting of the following: 130 mM NaCl, 12 mM NaHCO3, 3 mM NaH2 PO4, 3 mM Na2 HPO4, 3 mM K2 HPO4, 2 mM MgSO4, 1 mM CaCl2, 5 mM glucose and 4 mM L-glutamine, 25 mM HEPES at pH 7.4. The minced tissues were washed and then incubated in a 37° C. shaker bath for 40 minutes with the buffer containing 0.1% collagenase and 0.1% BSA and bubbled with 95% O2 and 5% CO2. The tissues were passed twice through a 5 ml glass syringe to liberate the gastric glands, and then filtered through 200 mesh nylon. The filtered glands were centrifuged at 270 g for 5 minutes and washed twice by resuspension and centrifugation.
The washed guinea pig gastric glands prepared as above were resuspended in 25 ml of standard buffer containing 0.25 mg/ml of bacitracin. For binding studies, to 220 μl of gastric glands in triplicate tubes, 10 μl of buffer (for total binding) or gastrin (1 μM final concentration, for nonspecific binding) or test compound and 10 μl of ^125 I-gastrin (NEN, 2200 Ci/mmole, 25 pM final) or ^3 H-pentagastrin (NEN 22 Ci/mmole, 1 nM final) were added. The tubes were aerated with 95% O2 and 5% CO2 and capped. The reaction mixtures after incubation at 25° C. for 30 minutes were filtered under reduced pressure on glass G/F B filters (Whatman) and immediately washed further with 4×4 ml of standard buffer containing 0.1% BSA. The radioactivity on the filters was measured using a Beckman gamma 5500 for ^125 I-gastrin or liquid scintillation counting for ^3 H-pentagastrin.

[4] = target: T2, CCK receptor (Brain, cerebral cortex) (Cavia porcellus, UniProt H0VZC5); test: CCK Receptor Binding (Brain), inhibition of 125I-CCK-33 binding; set-up: species or system guinea pig (Male Hartley); settings: head prints ^25 I-CCK; guinea pig cerebral cortex
T2 construct: Cerebral cortex was dissected and used as a receptor source; from tissue; host or cells: cerebral cortex membranes of male Hartley guinea pigs
T2 sequence (H0VZC5 1-426): T1 sequence (H0VZC5 1-426)
Description: CCK-33 was radiolabeled and the binding was performed according to the description for the pancreas method with modifications according to Saito et al., J. Neurochem. 37:483-490, 1981.
Male Hartley guinea pigs (300-500 g) were sacrificed by decapitation and the brains were removed and placed in ice-cold 50 mM Tris HCl plus 7.58 g/l Trizma-7.4 (pH 7.4 at 25° C.). Cerebral cortex was dissected and used as a receptor source. Each gram of fresh guinea pig brain tissue was homogenized in 10 ml of Tris/Trizma buffer with a Brinkman polytron PT-10. The homogenates were centrifuged at 42,000 g for 15 minutes. Pellets were resuspended in Tris Buffer, centrifuged as above and resuspended in 200 volumes of binding assay buffer (10 mM N-2-hydroxyethyl-piperazine-N'-2-ethane sulfonic acid (HEPES), 5 mM MgCl2, 0.25 mg/ml bacitracin, 1 mM ethylene glycol-bis-(β-aminoethylether-N,N'-tetraacetic acid) (EGTA), and 0.4% bovine serum albumin (BSA)). […] All assays were run in duplicate or triplicate. The reaction mixtures were incubated at 25° C. for 2 hours and centrifuged in a Beckman Microfuge (4 minutes) immediately after adding 1 ml of ice-cold incubation buffer. The supernatant was aspirated and discarded, pellets were counted with a Beckman gamma 5000.

CCK receptor (Pancreas) = target: T3, CCK receptor (Pancreas) (Rattus norvegicus, UniProt P30551); test: CCK Receptor Binding (Pancreas), inhibition of 125I-CCK-33 binding; set-up: species or system rat (Male Sprague-Dawley); settings: 125I-CCK-33, rat pancreas membranes
T3 construct: The whole pancreas was dissected free of fat tissue and was homogenized; from tissue; host or cells: pancreas membranes of male Sprague-Dawley rats
T3 sequence (P30551 1-444): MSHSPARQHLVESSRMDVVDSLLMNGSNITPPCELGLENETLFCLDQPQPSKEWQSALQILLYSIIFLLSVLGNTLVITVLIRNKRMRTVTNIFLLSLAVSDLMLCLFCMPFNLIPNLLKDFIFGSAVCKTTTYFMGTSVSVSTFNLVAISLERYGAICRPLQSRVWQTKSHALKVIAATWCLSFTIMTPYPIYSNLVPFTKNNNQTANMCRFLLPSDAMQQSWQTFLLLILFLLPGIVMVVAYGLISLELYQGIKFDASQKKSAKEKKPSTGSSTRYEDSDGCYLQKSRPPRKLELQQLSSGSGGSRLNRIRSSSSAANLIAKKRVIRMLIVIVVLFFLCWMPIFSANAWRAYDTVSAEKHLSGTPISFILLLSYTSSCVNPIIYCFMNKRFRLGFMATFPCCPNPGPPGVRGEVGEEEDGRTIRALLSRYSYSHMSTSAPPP
Description: CCK-33 was radiolabeled with ^125 I-Bolton Hunter reagent (2000 Ci/mmole) as described by Sankara et al. (J. Biol. Chem. 254: 9349-9351, 1979). Receptor binding was performed according to Innis and Snyder (Proc. Natl. Acad. Sci. 77, 6917-6921, 1980) with the minor modification of adding the additional protease inhibitors, phenylmethane sulfonyl fluoride and o-phenanthroline. The latter two compounds have no effect on the ^125 I-CCK receptor binding assay.
Male Sprague-Dawley rats (200-350 g) were sacrificed by decapitation. The whole pancreas was dissected free of fat tissue and was homogenized in 20 volumes of ice-cold 50 mM Tris HCl (pH 7.7 at 25° C.) with a Brinkmann Polytron PT 10. The homogenates were centrifuged at 48,000 g for 10 min. Pellets were resuspended in Tris Buffer, centrifuged as above and resuspended in 200 volumes of binding assay buffer (50 mM Tris HCl, pH 7.7 at 25° C., 5 mM dithiothrietol, 0.1 mM bacitracin, 1.2 mM phenylmethane sulfonyl fluoride and 0.5 mM o-phenanthroline). […] All assays were run in duplicate or triplicate. The reaction mixtures were incubated at 37° C. for 30 minutes and centrifuged in a Beckman Microfuge (4 minutes) immediately after adding 1 ml of ice-cold incubation buffer. The supernatant was aspirated and discarded, pellets were counted with a Beckman gamma 5000. For Scatchard analysis (Ann. N.Y. Acad. Sci. 51: 660, 1949), ^125 I-CCK-33 was progressively diluted with increasing concentrations of CCK-33.
A Ki value (dissociation constant of inhibitor) of the compounds of Formula I was estimated.

CCK-B receptors = settings: cited from earlier work

For `CSCC[C@H](NC(=O)[C@H](Cc1ccc(O)cc1)NC(=O)[C@@H](N)CC(=O)O)C(=O)NCC(=O)N[C@@H](Cc1c[nH]c2ccccc12)C(=O)N[C@@H](CCSC)C(=O)N[C@@H](CC(=O)O)C(=O)N[C@@H](Cc1ccccc1)C(N)=O` [CCK-8d], the “Affinity for CCK-A receptors” value (CCK-A receptors) is listed as “lower affinity”.
For `CN1C(=O)[C@@H](NC(=O)c2cc3ccccc3[nH]2)N=C(c2ccccc2)c2ccccc21` [Compound A, 3(S)-(-)-1,3-dihydro-3-(2-indolecarbonylamino)-1-methyl-5-phenyl-2H-1,4-benzodiazepin-2-one], the “Habituation and period of exploratory activity” value ([1]; 0.0001-10 mg/kg s.c., F(6,124)=2.54, p<0.05) was “delayed habituation and prolonged the period of exploratory activity of the rats”, the “Level of activity at 25 minutes” value ([1]; 0.1 mg/kg s.c., 25 minutes, F(6.124)=3.18, p<0.01) was “significantly above controls” and the “Level of activity at 25 minutes” value ([1]; doses higher and lower than 0.1 mg/kg, bell-shaped dose response) was “no significant effect on activity”. The “Preference for locomotion (line crossings) in the black side” value (anxiety (mice); 0.5, 5.0 and 500 ug/kg) was “abolished the preference for locomotion (line crossings) in the black side”, the “Difference in time spent in the black and white side” value (anxiety (mice); 5.0 and 500 ug/kg) was “abolished” and the Active dose range (anxiety (mice); black/white exploration test, mice) was 0.05 to 5.0 µg/kg. For the same compound, the “Preference for rearing in the black side” value (anxiety (mice); doses of 0.05, 0.5, 5.0 and 500 ug/kg) was “significantly decreased the preference for rearing in the black side”, the Cage crossing ([2]; F(3,43)=3.79, P<0.05) was “significantly increased” and the Sniffing ([2]; F(3,43)=3.96, P<0.01) was “significantly increased”. For the same compound, the Rearing ([2]; F(3,43)=4.77, P<0.01) was “significantly increased”.
For “gastrin: structurally related neuropeptides which exist in gastrointestinal tissue and in the central nervous system”, the “Affinity for CCK-A receptors” value (CCK-A receptors) is given as “lower affinity”.
With `CC(C)(C)OC(=O)CN1C(=O)C(NC(=O)Nc2ccc(Cl)cc2)CCc2ccccc21` (stereo not shown) [Example 1, 1,1-Dimethylethyl 3-{[[(4-chlorophenyl)amino]carbonyl]amino}-2,3,4,5-tetrahydro-2-oxo-1H-1-benzazepine-1-acetic acid ester] the IC50 [3] was 120 nM, the IC50 [4] was 180 nM and the IC50 (CCK receptor (Pancreas)) was 350 nM.
In the case of `CSCC[C@H](NC(=O)[C@H](Cc1c[nH]c2ccccc12)NC(=O)CCNC(=O)OC(C)(C)C)C(=O)N[C@@H](CC(=O)O)C(=O)N[C@@H](Cc1ccccc1)C(N)=O` [pentagastrin], the “Affinity for CCK-B receptors” value (CCK-B receptors) is listed as “high affinity”.
With `Cc1ccc(NC(=O)NC2CCc3ccccc3N(CC(=O)OC(C)(C)C)C2=O)cc1` (stereo not shown) [Example 12] the IC50 [3] was 130 nM, the IC50 [4] was 660 nM and the IC50 (CCK receptor (Pancreas)) was 170 nM.
Compound `CC(C)(C)OC(=O)CN1C(=O)C(NC(=O)Nc2cccc3ccccc23)CCc2ccccc21` (stereo not shown) [Example 8] has an IC50 [3] of 480 nM, an IC50 [4] of 148 nM and an IC50 (CCK receptor (Pancreas)) of 960 nM.
